The values that follow come from paper PMC11978679, “Pyrazolyl amide-chalcones conjugates: Synthesis and antikinetoplastid activity” (Naunyn-Schmiedeberg's Archives of Pharmacology, 2024).

Usually IC50 stands for the concentration that gives 50% inhibition. What is called melting point is the temperature, or range, at which the solid turns liquid. One may read the CC50 as the concentration giving 50% cytotoxicity.

Data set [1] deals with Trypanosoma cruzi (intracellular amastigotes). The data set can be described thus: In vitro anti-parasitic assay, T. cruzi (β-galactosidase/CPRG readout). The conditions noted are these: TULAHUEN, MRC-5 SV2, read-out: IC50 T. cruzi.
The test system of data set [2] is T. cruzi, T. b. brucei, T. b. rhodesiense and L. infantum. The data set can be described thus: Antikinetoplastid activity, whole panel, verdict in words. The following applies: compounds lacking the chalcone moiety.
Data set [3] concerns Leishmania infantum (intracellular amastigotes). The data set can be described thus: In vitro anti-Leishmania assay in primary peritoneal mouse macrophages (Giemsa, microscopy). The following applies: Macrophage, 120 h, read-out: IC50 L. infantum.
Data set [4] deals with primary mouse macrophages (PMMs). The data set can be described thus: In vitro cytotoxicity against primary mouse macrophages. It is filed as cell-based. The conditions noted are these: for IC50: Macrophage, cytotoxicity, primary mouse macrophages.
The test system of data set [5] is human lung fibroblasts (MRC-5). The data set can be described thus: In vitro cytotoxicity assay, MRC-5SV2 cells (resazurin). It counts as cell-based. The following applies: for IC50: Homo sapiens, MRC5, 72 h, cytotoxicity, lung fibroblast, 3 days. On the procedure: (§1) Briefly, 1.5 × 10^5 cells/mL cells were cultured with compound dilutions at 37 °C and with 5% CO2. Cell growth was compared to untreated-control wells (100% cell growth) and medium-control wells (0% cell growth). After 3 days incubation, cell viability was assessed fluorometrically after addition of 50 μL resazurin per well. […] The results were expressed as % reduction in cell growth/viability compared to control wells and an IC50 value was determined.
(Resazurin is reduced to fluorescent resorufin, in cell work by metabolically active cells.)

Data set [6] relates to Trypanosoma brucei rhodesiense (blood stream trypomastigotes). In words: Drug susceptibility resazurin assay, T. b. rhodesiense. The conditions noted are these: 72 h, read-out: IC50 T. b. rhodesiense.
Data set [7] has as its system Trypanosoma brucei brucei (blood stream trypomastigotes). The data set can be described thus: Drug susceptibility resazurin assay, T. b. brucei. The conditions noted are these: 72 h, read-out: IC50 T. b. brucei.
Data set [8] in a line: In vitro cytotoxicity assay, MRC-5SV2 cells (resazurin). It counts as cell-based, human. The following applies: human, MRC-5SV2 cells (human lung fibroblasts); cytotoxicity; read-out: CC50 against MRC-5. On the procedure: as §1
In data set [9] the test system is promastigotes of L. aethiopica. The following applies: ref Bekhit et al. [2014]; cited from earlier work.

On to `O=C(Cn1ccnc1[N+](=O)[O-])NCc1ccccc1` [Benznidazole, reference compound], for which, in data set [1], the IC50 was determined as 1.35 µM.

For `O=C(O)c1cn(-c2ccccc2)nc1-c1ccccc1` [Compound 5, 1,3-diphenyl-1H-pyrazole-4-carboxylic acid], the “antikinetoplastid activity, in words” value in [2] was “inactive”. Besides, the IC50 in [3] is greater than 64 µM; in [4], greater than 64 µM; in [5], 33 µM; in data set [6], greater than 64 µM; in data set [1], greater than 64 µM; in data set [7], greater than 64 µM.

The compound `CC(=O)c1ccc(NC(=O)c2cn(-c3ccccc3)nc2-c2ccccc2)cc1` [Compound 7, N-(4-acetylphenyl)-1,3-diphenyl-1H-pyrazole-4-carboxamide] displayed a melting point of 149 to 150 °C. In addition, in [2], the “antikinetoplastid activity, in words” value is “inactive”. Further, the IC50 in [3] is greater than 64 µM. Besides, the IC50 in [4] is greater than 64 µM. In [5], the IC50 was determined as 14.4 µM. Further, the IC50 in data set [6] is greater than 64 µM. Besides, in data set [1], the IC50 is greater than 64 µM. Also, the IC50 in [7] is greater than 64 µM.

Consider `O=C(C=Cc1ccccc1)c1ccc(NC(=O)c2cn(-c3ccccc3)nc2-c2ccccc2)cc1` [Compound 9a, N-(4-cinnamoylphenyl)-1,3-diphenyl-1H-pyrazole-4-carboxamide], for which the melting point lay in the range of 160 to 161 °C. Besides, in [3], the IC50 came to 7.16 ± 1.88 µM. In [4], the “cytotoxicity against primary mouse macrophages (PMMs), in words” value (“cytotoxicity … (PMMs), in words” below) was “non-cytotoxic” and the IC50 amounted to 32 µM. Besides, in data set [5], the “cytotoxicity against human lung fibroblasts (MRC-5), in words” value (shortened to “cytotoxicity … (MRC-5), in words”) was “non-cytotoxic” and the IC50 is greater than 64 µM. Also, in [6], the IC50 is 0.96 ± 0.49 µM. Further, the IC50 in data set [1] is greater than 53.2 µM. In [7], the IC50 was 0.77 ± 0.27 µM.

In the case of `Cc1ccccc1/C=C/C(=O)c1ccc(NC(=O)c2cn(-c3ccccc3)nc2-c2ccccc2)cc1` [Compound 9b, (E)-1,3-diphenyl-N-(4-(3-(o-tolyl)acryloyl)phenyl)-1H-pyrazole-4-carboxamide], the IC50 in data set [3] is 18.7 ± 9.18 µM; in data set [4] it was greater than 36 µM; in [5], greater than 64 µM; in data set [6], 0.54 ± 0.24 µM; in data set [1] it was greater than 64 µM; in data set [7] it was 0.51 ± 0.06 µM. The “cytotoxicity … (PMMs), in words” value in data set [4] is recorded as “non-cytotoxic”. The “cytotoxicity … (MRC-5), in words” value in data set [5] is “non-cytotoxic”.

`COc1cccc(/C=C/C(=O)c2ccc(NC(=O)c3cn(-c4ccccc4)nc3-c3ccccc3)cc2)c1` [Compound 9c, (E)-N-(4-(3-(3-methoxyphenyl)acryloyl)phenyl)-1,3-diphenyl-1H-pyrazole-4-carboxamide] yielded an IC50 in data set [5] of 10.7 µM. Besides, the CC50 at 3 days in data set [8] turned out to be 10.7 µM.

Compound `COc1ccc(/C=C/C(=O)c2ccc(NC(=O)c3cn(-c4ccccc4)nc3-c3ccccc3)cc2)cc1` [Compound 9d, (E)-N-(4-(3-(4-methoxyphenyl)acryloyl)phenyl)-1,3-diphenyl-1H-pyrazole-4-carboxamide] came in with a melting point of 174 to 175 °C. The IC50 in [3] turned out to be 31.8 ± 19.1 µM. Moreover, the IC50 in data set [4] was greater than 64 µM. The IC50 in data set [5] is greater than 64 µM. For the same compound, in [6], the IC50 came out at 0.69 ± 0.31 µM. In addition, the IC50 in data set [1] was greater than 64 µM. The IC50 in data set [7] is 1.64 ± 0.12 µM.

Regarding `O=C(/C=C/c1ccc(Br)cc1)c1ccc(NC(=O)c2cn(-c3ccccc3)nc2-c2ccccc2)cc1` [Compound 9e, (E)-N-(4-(3-(4-bromophenyl)acryloyl)phenyl)-1,3-diphenyl-1H-pyrazole-4-carboxamide], the IC50 in [3] was greater than 46.8 µM; in [4], greater than 64 µM; in data set [5], 34.9 µM; in data set [6], 1.37 ± 0.02 µM; in data set [1] it was greater than 64 µM; in data set [7] it was 1.13 ± 0.63 µM.

For the compound `O=C(/C=C/c1ccccc1Cl)c1ccc(NC(=O)c2cn(-c3ccccc3)nc2-c2ccccc2)cc1` [Compound 9f, (E)-N-(4-(3-(2-chlorophenyl)acryloyl)phenyl)-1,3-diphenyl-1H-pyrazole-4-carboxamide], the IC50 in data set [3] is 18.7 ± 9.18 µM; in data set [4], greater than 64 µM; in data set [5] it was greater than 64 µM; in data set [6], 0.81 ± 0.09 µM; in data set [1] it was 13.4 ± 4.95 µM; in data set [7], 0.6 ± 0.33 µM.

In the case of `O=C(/C=C/c1cccc(Cl)c1)c1ccc(NC(=O)c2cn(-c3ccccc3)nc2-c2ccccc2)cc1` [Compound 9g, (E)-N-(4-(3-(3-chlorophenyl)acryloyl)phenyl)-1,3-diphenyl-1H-pyrazole-4-carboxamide], the IC50 in data set [5] stood at 6.2 µM. Also, the CC50 at 3 days in data set [8] came out at 6.2 µM.

Take `O=C(/C=C/c1cccc(F)c1)c1ccc(NC(=O)c2cn(-c3ccccc3)nc2-c2ccccc2)cc1` [Compound 9h, (E)-N-(4-(3-(3-fluorophenyl)acryloyl)phenyl)-1,3-diphenyl-1H-pyrazole-4-carboxamide]: the IC50 in [3] is 21 ± 11 µM; in data set [4], greater than 48 µM; in data set [5], 24.8 µM; in [6] it was 1.56 ± 0.11 µM; in data set [1] it was greater than 64 µM; in [7], 6.36 ± 0.11 µM.

As for `O=C(/C=C/c1ccc(F)cc1)c1ccc(NC(=O)c2cn(-c3ccccc3)nc2-c2ccccc2)cc1` [Compound 9i, (E)-N-(4-(3-(4-fluorophenyl)acryloyl)phenyl)-1,3-diphenyl-1H-pyrazole-4-carboxamide], the 50% inhibitory concentration (IC50) in [3] was greater than 37.4 µM; in [4], greater than 64 µM; in data set [5] it was greater than 64 µM; in [6], 1.12 ± 0.74 µM; in data set [1] it was greater than 54.2 µM; in data set [7], 0.78 ± 0.26 µM.

As for `O=C(/C=C/c1ccc(Cl)c(Cl)c1)c1ccc(NC(=O)c2cn(-c3ccccc3)nc2-c2ccccc2)cc1` [Compound 9j, (E)-N-(4-(3-(3,4-dichlorophenyl)acryloyl)phenyl)-1,3-diphenyl-1H-pyrazole-4-carboxamide], the melting point lay within 200 to 201 °C. In addition, in data set [3], the IC50 was greater than 64 µM. The compound further displayed an IC50 in [4] greater than 64 µM. The same compound had an IC50 in data set [5] of 22.3 µM. The IC50 in [6] worked out at 4.52 µM. Also, in [1], the IC50 was 46.1 µM. Further, the IC50 in [7] came out at 4.63 µM.

`O=C(/C=C/c1cccc([N+](=O)[O-])c1)c1ccc(NC(=O)c2cn(-c3ccccc3)nc2-c2ccccc2)cc1` [Compound 9k, (E)-N-(4-(3-(3-nitrophenyl)acryloyl)phenyl)-1,3-diphenyl-1H-pyrazole-4-carboxamide]: the IC50 in data set [3] was 45.2 µM; in [4], greater than 64 µM; in data set [5], 19.4 µM; in data set [6], 8.22 µM; in data set [1] it was greater than 64 µM; in data set [7], 6.69 µM.

As for `O=C(/C=C/c1cccs1)c1ccc(NC(=O)c2cn(-c3ccccc3)nc2-c2ccccc2)cc1` [Compound 9l, (E)-1,3-diphenyl-N-(4-(3-(thiophen-2-yl)acryloyl)phenyl)-1H-pyrazole-4-carboxamide], the melting point was 210 to 211 °C. In addition, the IC50 in data set [3] is greater than 53.5 µM. The compound also had an IC50 in data set [4] greater than 64 µM. In [5], this compound registered an IC50 of 39.2 µM. Also, the IC50 in data set [6] was determined as 2.7 ± 0.03 µM. Besides, the IC50 in data set [1] is greater than 64 µM. Besides, the IC50 in data set [7] is 13.2 ± 19 µM.

For `O=C(/C=C/c1cccnc1)c1ccc(NC(=O)c2cn(-c3ccccc3)nc2-c2ccccc2)cc1` [Compound 9m, (E)-1,3-diphenyl-N-(4-(3-(pyridin-3-yl)acryloyl)phenyl)-1H-pyrazole-4-carboxamide], the melting point lay in the range of 198 to 199 °C. Moreover, the IC50 in data set [5] amounted to 0.26 µM. Further, the CC50 at 3 days in [8] came to 0.26 µM.

`O=C(/C=C/c1ccc2c(c1)OCO2)c1ccc(NC(=O)c2cn(-c3ccccc3)nc2-c2ccccc2)cc1` [Compound 9n, (E)-N-(4-(3-(benzo[d][1,3]dioxol-5-yl)acryloyl)phenyl)-1,3-diphenyl-1H-pyrazole-4-carboxamide] showed a melting point of 182 to 183 °C. The IC50 in data set [3] was greater than 57.4 µM. In [4], the “cytotoxicity … (PMMs), in words” value is reported as “non-cytotoxic” and the IC50 is greater than 64 µM. In addition, in data set [5], the “cytotoxicity … (MRC-5), in words” value is “non-cytotoxic” and the IC50 was found to be 64 µM. Also, in [6], the IC50 came out at 0.46 ± 0.07 µM. The IC50 in data set [1] was greater than 64 µM. For the same compound, in [7], the IC50 is 3.44 ± 2.88 µM.

With `Cc1ccc(-n2cc(/C=C/C(=O)c3cccs3)c(-c3ccccc3)n2)cc1` [II], the “EC50 against promastigotes of L. aethiopica” value in data set [9] is 0.079 µg/mL.

As for `CCCCCCCCCCCCCCCCOP(=O)([O-])OCC[N+](C)(C)C` [Miltefosine, reference compound], in data set [3], the IC50 turned out to be 7.13 µM.

As to `Cc1ccc(C(=O)Nc2ccc(S(=O)(=O)O)c3cc(S(=O)(=O)O)cc(S(=O)(=O)O)c23)cc1NC(=O)c1cccc(NC(=O)Nc2cccc(C(=O)Nc3cc(C(=O)Nc4ccc(S(=O)(=O)O)c5cc(S(=O)(=O)O)cc(S(=O)(=O)O)c45)ccc3C)c2)c1` [Suramine, reference compound], the IC50 is 0.05 µM in data set [6] and 0.04 µM in data set [7].
